# Assay results taken from US6380263B1, “6-substituted pyrimidine 3-oxides for promoting pigmentation of the skin/hair” (Societe L'Oreal, priority 1996, dated 2002).
# Test system: hair pigmentation
# Assay: not given
# Settings: bald men treated with this compound; cited from earlier work
row,SMILES,effect on hair pigmentation
1,"Nc1cc(N2CCCCC2)nc(N)[n+]1[O-] [Minoxidil, 2,4-diamino-6-piperidinopyrimidine 3-oxide, reference compound]",stimulatory effect on hair pigmentation

# Test system: purified fungal tyrosinase (EC 1.14.18.1)
# Assay: Modulation of tyrosinase activity (dopachrome formation from L-tyrosine, spectrophotometry at 475 nm)
# Type: biochemical
# Settings: 100 μl of 1 mM derivative solution (PBS/1% ethanol) in 1000 μl mixture; substrate L-tyrosine; 37° C.; at least 30 minutes
# Procedure: In order to determine the activity of the pyrimidine derivatives substituted in position 6, the simple and rapid technique is employed that entails measurement by incubating an optionally purified tyrosinase and one of its substrates in a suitable medium in the presence of a test compound, and then comparing the measurements taken with the results of identical measurements taken during the incubation of optionally purified tyrosinase with one of its substrates in the absence of the test compound.
# A purified tyrosinase was incubated in the presence of one of its substrates in a suitable medium, in the presence or absence of a pyrimidine 3-oxide derivative, substituted in position 6. The activity of the enzyme was evaluated by measuring the amount of a product of conversion of the substrate formed during the reaction. The result obtained in the presence of a derivative was compared with the result obtained in the absence of a derivative.
# The substrate used was L-tyrosine (marketed by Sigma), a stock solution of which was prepared in phosphate-buffered saline (PBS) at a concentration of 0.5 mM.
# The enzyme used was a purified fungal tyrosinase (EC 1.14.18.1) marketed by Sigma. A stock solution of this enzyme was prepared in PBS at a concentration of 5 mg/ml, which represents a concentration of about 19,500 international units of tyrosinase per milliliter.
# The product of conversion of the tyrosine by tyrosinase, dopachrome, was measured by spectrophotometry at a wavelength of 475 nm using a Perkin Elmer type apparatus.
# The derivative to be tested was prepared in solution in PBS containing 1% ethanol at a concentration of 1 mM.
# The following reagents were mixed together in a spectrophotometer cell:
# 500 μl of tyrosine solution,
# 390 μl of phosphate buffer,
# 10 μl of fungal tyrosinase solution,
# 100 μl of solution of test derivative or of PBS/1% ethanol (control).
# The mixture was then incubated at a temperature of 37° C. and the dopachrome formed was measured continuously for at least 30 minutes.
# The results obtained are expressed as a % of activation of the tyrosinase activity relative to the value obtained with the control (in the absence of derivative).
row,SMILES,Activation (% of activation of the tyrosinase activity relative to the control)
1,Nc1nc(N2CCCCC2)cc(NCCO)[n+]1[O-] [2-amino-4-(2-hydroxyethylamino)-6-piperidinopyrimidine 3-oxide],43%
2,CCCNc1cc(N(C)C)nc(N)[n+]1[O-] [2-amino-4-propylamino-6-dimethylaminopyrimidine 3-oxide],50%
3,CCCNc1cc(N2CCCCC2)nc(N)[n+]1[O-] [2-amino-4-propylamino-6-piperidinopyrimidine 3-oxide],46%
4,CCCCNc1cc(N(C)C)nc(N)[n+]1[O-] [2-amino-4-butylamino-6-dimethylaminopyrimidine 3-oxide],51%
5,CCCCCCNc1cc(N2CCCCC2)nc(N)[n+]1[O-] [2-amino-4-hexylamino-6-piperidinopyrimidine 3-oxide],47%
6,Nc1nc(N2CCCCC2)cc(NCc2ccccc2)[n+]1[O-] [2-amino-4-benzylamino-6-piperidinopyrimidine 3-oxide],45%
7,"CCCNc1cc(N(C)C)nc(NCCC)[n+]1[O-] [2,4-bis-propylamino-6-dimethylaminopyrimidine 3-oxide]",55%
8,"CCCNc1cc(N2CCCCC2)nc(NCCC)[n+]1[O-] [2,4-bis-propylamino-6-piperidinopyrimidine 3-oxide]",57%
9,"CNc1cc(N(C)C)nc(NC)[n+]1[O-] [2,4-bis-methylamino-6-dimethylaminopyrimidine 3-oxide]",61%
10,"Nc1cc(N2CCCCC2)nc(N)[n+]1[O-] [Minoxidil, 2,4-diamino-6-piperidinopyrimidine 3-oxide, reference compound]",41%
11,"CCNc1cc(N(C)C)nc(NCC)[n+]1[O-] [2,4-bis-ethylamino-6-dimethylaminopyrimidine 3-oxide]",60%
12,CC(C)Nc1cc(N(C)C)nc(N)[n+]1[O-] [2-amino-4-isopropylamino-6-dimethylaminopyrimidine 3-oxide],46%
13,CNc1cc(N2CCCCC2)nc(N)[n+]1[O-] [2-amino-4-methylamino-6-piperidinopyrimidine 3-oxide],50%
